Where a name gives a salt, the structure may show the parent alone. Read-outs that look alike come from different tables or passages of the source.
Columns and labels:
δ opioid receptors = δ opioid receptors (Rattus norvegicus, UniProt P33533); test: Opiate Binding Assay, displacement of 3[H]-DSLET from δ receptors; details: for Mean IC50 μ/δ Ratio: ratio of mean IC50 values for μ and δ, above 1.0 = more δ specific
μ opioid receptors = μ opioid receptors (Rattus norvegicus, UniProt P33535); test: Opiate Binding Assay, displacement of 3[H]-DAMPGO from μ receptors
Chain of μ opioid receptors (P33535 whole entry): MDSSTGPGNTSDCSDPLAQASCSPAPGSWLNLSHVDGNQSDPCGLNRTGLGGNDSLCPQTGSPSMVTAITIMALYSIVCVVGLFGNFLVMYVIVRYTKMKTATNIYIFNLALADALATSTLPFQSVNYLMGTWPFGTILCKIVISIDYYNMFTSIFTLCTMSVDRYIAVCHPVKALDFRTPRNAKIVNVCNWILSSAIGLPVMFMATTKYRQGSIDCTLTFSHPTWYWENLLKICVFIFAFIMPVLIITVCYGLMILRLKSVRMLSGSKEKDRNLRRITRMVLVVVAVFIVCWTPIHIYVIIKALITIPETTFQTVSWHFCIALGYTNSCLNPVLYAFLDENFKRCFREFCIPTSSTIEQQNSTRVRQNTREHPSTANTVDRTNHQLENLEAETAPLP

[1] = read-out: Mean IC50 Value, δ, rat forebrain membranes, 3[H]-DSLET 1.0 nM, 37° C., pH 7.4
[2] = read-out: Mean IC50 Value, μ, rat forebrain membranes, 3[H]-DAMPGO 2.0 nM, 37° C., pH 7.4

Chain of δ opioid receptors (P33533 whole entry): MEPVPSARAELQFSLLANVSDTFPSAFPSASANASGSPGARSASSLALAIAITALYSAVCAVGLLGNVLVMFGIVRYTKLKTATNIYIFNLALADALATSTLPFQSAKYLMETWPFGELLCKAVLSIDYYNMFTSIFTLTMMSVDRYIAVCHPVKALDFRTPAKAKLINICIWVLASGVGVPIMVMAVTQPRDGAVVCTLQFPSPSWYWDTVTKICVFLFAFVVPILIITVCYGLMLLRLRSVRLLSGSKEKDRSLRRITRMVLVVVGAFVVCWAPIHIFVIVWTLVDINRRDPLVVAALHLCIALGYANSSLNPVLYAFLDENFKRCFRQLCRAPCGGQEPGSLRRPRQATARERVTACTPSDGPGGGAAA

SMILES	IC50 (δ opioid receptors)	Mean IC50 μ/δ Ratio (δ opioid receptors)	IC50 (μ opioid receptors)	IC50 (δ opioid receptors; [1])	IC50 (μ opioid receptors; [2])
Cc1cc(O)cc(C)c1C[C@H](N)C(=O)NCC(C)(C)NC(=O)[C@H](Cc1ccccc1)NC(=O)OCc1ccccc1 [Example 26, Phenylmethyl[1S-[[[2-[[2S-amino-3-(4-hydroxy-2,6-dimethylphenyl)-1-oxopropyl]amino]-1,1-dimethylethyl1-amino]carbonyl]-2-phenylethyl]carbamate, monohydrochloride]	29.8 nM	0.6	19 nM	–	–
CC(=O)N[C@@H](Cc1ccccc1)C(=O)NCCNC(=O)[C@@H](N)Cc1c(C)cc(O)cc1C [Example 48, αS-(Acetylamino)-N-[(2-[[2S-amino-3-(4-hydroxy-2,6-dimethylphenyl)-1-oxopropyl]aminoethyl]benzenepropanamide, hydrochloride]	2.9 nM	0.1	0.3 nM	–	–
CC(=O)N[C@@H](Cc1c(C)cccc1C)C(=O)NCCNC(=O)[C@@H](N)Cc1ccc(O)cc1 [Example 51, αS-(Acetylamino)-N-[2-[[2S-amino-3-(4-hydroxyphenyl)-1-oxopropyl]amino]ethyl]-2,6-dimethylbenzenepropanamide. hydrochloride]	> 50 nM	–	–	–	–
CC(=O)N[C@@H](Cc1ccccc1)C(=O)N1CCC(NC(=O)[C@@H](N)Cc2c(C)cc(O)cc2C)C1 (stereo partly drawn) [Example 56, N-1-[2S-(Acetylamino)-1-oxo-3-phenylpropyl]-3-pyrrolidinyl]-αS-amino-4-hydroxy-2,6-dimethylbenzenepropanamide, monohydrochloride]	50.3 nM	1.7	85.5 nM	–	–
Cc1cc(O)c(C)c(C)c1C[C@@H](N)C(=O)NC(C)(C)CNC(=O)[C@H](Cc1ccccc1)NC(=O)OCc1ccccc1 [Example 31, Phenylmethyl[1S[[[2-[[2R-amino-3-(4-hydroxy-2,3,6-trimethylphenyl) -1-oxopropyl]amino]-2-methylpropyl]amino]carbonyl1-2-phenylethyl]carbamate, hydrochloride]	> 100 nM	–	100 nM	–	–
CC(=O)N[C@H](C(=O)NCC(C)(C)NC(=O)[C@@H](N)Cc1c(C)cc(O)cc1C)c1ccccc1 [Example 20, N-[2-[[2S-(acetylamino)-2-phenylacetyl]amino]-1,1-dimethylethyl]-αS-amino-4-hydroxy-2,6-dimethylbenzenepropanamide, hydrochloride]	19.3 nM	0.06	1.2 nM	–	–
Cc1cc(O)c(C)c(C)c1C[C@H](N)C(=O)NC(C)(C)CNC(=O)[C@H](Cc1ccccc1)NC(=O)OCc1ccccc1 [Example 30, Phenylmethyl[1S[[[2-[[2S-amino-3-(4-hydroxy-2,3,6-trimethylphenyl)-1-oxopropyl]amino]-2-methylpropyl]amino]carbonyl]-2-phenylethyl]carbamate, hydrochloride]	100 nM	–	< 10 nM	–	–
CC(=O)N[C@@H](Cc1ccccc1)C(=O)N1CCN(C(=O)[C@@H](N)Cc2c(C)cc(O)cc2C)CC1 [Example 54, N-[1S-[[4-[2-S-Amino-3-(4-hydroxy-2,6-dimethylphenyl)-1-oxopropyl]-1-piperazinyl]carbonyl]-2-phenylethyl]acetamide, monohydrochloride]	88.8 nM	0.04	3.3 nM	–	–
Cc1cc(O)cc(C)c1C[C@H](N)C(=O)NCCNC(=O)[C@@H](N)Cc1ccccc1 [Example 24, αS-amino-N-[2-[[2S-amino-3-(4-hydroxy-2,6-dimethylphenyl) -1-oxopropyl]amino]ethyl]benzenepropanamide, dihydrochloride]	562 nM	0.01	3.7 nM	–	–
Cc1cc(O)cc(C)c1C[C@H](N)C(=O)NCCNC(=O)[C@H](Cc1ccccc1)NC(=O)OCc1ccccc1 [Example 22, Phenylmethyl[1S-[[(2-(8 [2S-amino-3-[4-hydroxy-2,6-dimethylphenyl) -1-oxopropyl]ethylaminocarbonyl-2-phenylethylcarbamate, monohydrochloride]	3.1 nM	0.8	2.6 nM	–	–
Cc1cc(O)cc(C)c1C[C@H](NC(=O)OC(C)(C)C)C(=O)NCCNC(=O)[C@@H](N)Cc1ccccc1 [Example 23, 1,1-dimethylethyl[1S-[[[2-[[(2S-amino-l-oxo-3-phenylpropyl)amino]ethyl]amino]carbonyl]-2-(4-hydroxy-2,6-dimethylohenyl)ethyl]carbamate, acetate (salt)]	100 nM	10	1000 nM	–	–
Cc1cc(O)cc(C)c1C[C@H](NC(=O)OC(C)(C)C)C(=O)NC(C)(C)CNC(=O)[C@@H](N)Cc1ccccc1 [Example 11, acetic acid salt]	100 nM	10	1000 nM	–	–
Cc1cc(O)cc(C)c1C[C@H](N)C(=O)NC(C)(C)CNC(=O)[C@H](Cc1ccccc1)NC(=O)NCc1ccccc1 [Example 33, αS-amino-N-[1,1-dimethyl-2-[[1-oxo-3-phenyl-2S-[[[(phenylmethyl)amino]carbonyl]amino]propyl]-amino]ethyl]-4-hydroxy-2,6-dimethylbenzeneprooanamide, hydrochloride]	~2 nM	–	< 10 nM	–	–
CC(=O)N[C@@H](Cc1ccccc1)C(=O)NC(C)(C)CNC(=O)[C@@H](N)Cc1c(C)cc(O)cc1C [Example 39, αS-(Acetylamino)-N-[2-[[2S-amino-3-(4-hydroxy-2,6-dimethylphenyl)-1-oxopropyl]amino]-1,1-dimethylethyl]-benzenepropanamide, monohydrochloride]	7.8 nM	0.6	4.7 nM	–	–
Cc1cc(O)cc(C)c1C[C@H](N)C(=O)N[C@H](C)CNC(=O)[C@H](Cc1ccccc1)NC(=O)OCc1ccccc1 [Example 46, Phenylmethyl[1S[[[2R-[[2S-amino-3-(4-hydroxy-2,6-dimethylphenyl) -1-oxopropyl]amino]propylamino]carbonyl]-2-phenylethyllcarbamate, hydrochloride]	4.2 nM	0.2	0.88 nM	–	–
CC(=O)N[C@@H](Cc1ccccc1)C(=O)NCC(C)(C)NC(=O)[C@H](N)Cc1c(C)cc(O)c(C)c1C [Example 41, αS-(acetylamino)-N-[2-[[2R-amino-3-(4-hydroxy-2,3,6-trimethylphenyl) -1-oxopropyl]amino]-2-methylpropyl]benzenepropanamide, monohydrochloride]	257 nM	0.5	122 nM	–	–
C=CCNC(=O)N[C@@H](Cc1ccccc1)C(=O)NCC(C)(C)NC(=O)[C@@H](N)Cc1c(C)cc(O)cc1C [Example 28, αS-amino-N-[1,1-dimethyl-2-[1-oxo-3-phenyl-2S-[(2-propenylamino)carbonyl]amino]propyl]amino]ethyl]-4-hydroxy-2,6-dimethylbenzenepropanamide, monohydrochloride]	~2 nM	–	< 10 nM	–	–
Cc1cc(O)cc(C)c1C[C@H](N)C(=O)NC(C)(C)CNC(=O)[C@H](Cc1ccc(F)cc1)NC(=O)OCc1ccccc1 [Example 8, Phenylmethyl[1S-[[[2-[[2S-amino-3-(4-hydroxy-2,6-dimethylohenyl)-1-oxopropyllamino]-methylpropyl]amino]-carbonyl]-2-(4-fluorophenyl)ethyl]carbamate. monohydrochloride]	28 nM	–	< 10 nM	–	–
CC(=O)N[C@@H](Cc1ccccc1)C(=O)Nc1cccc(NC(=O)[C@@H](N)Cc2c(C)cc(O)cc2C)c1 [Example 57, αS-(Acetylamino)-N-[3[[[2S-amino-3-[4-hydroxy-2,6-dimethylphenyl]-1-oxopropylamino]phenyl]benzenepropanamide, hydrochloride]	100 nM	–	–	–	–
Cc1cc(O)cc(C)c1C[C@H](NC(=O)OC(C)(C)C)C(=O)NC(C)(C)CN [Example 4, 1,1-Dimethylethyl[1S-[[(2-amino-1,1-dimethylethyl)amino]carbonyl]-2-(4-hydroxy-2,6-dimethylphenyl)ethyl]carbamate]	–	10	–	100 nM	1000 nM
Cc1cc(O)cc(C)c1C[C@H](N)C(=O)NC(C)(C)CNC(=O)[C@@H](N)Cc1ccccc1 [Example 12, αS-amino-N-[2-[2S-amino-3-(4-hydroxy-2,6-dimethylphenyl) -1-oxopropyl]amino]-2-methylpropyl]benzenepropanamide, dihydrochloride]	31.4 nM	0.1	3.4 nM	–	–
CCOC(=O)CNC(=O)N[C@@H](Cc1ccccc1)C(=O)NCC(C)(C)NC(=O)[C@@H](N)Cc1c(C)cc(O)cc1C [Example 35, hydrochloride]	–	–	–	~2 nM	< 10 nM
CC(=O)N[C@@H](Cc1ccc(F)cc1)C(=O)NCC(C)(C)NC(=O)[C@@H](N)Cc1c(C)cc(O)cc1C [Example 6, αS-(Acetylamino)-N-2-[2S-amino-3-(4-hydroxy-2,6-dimethylphenyl) -1-oxopropyl]amino]-2-methyloropyl]-4-fluorobenzenepropanamide, monohydrochloride]	1.8 nM	0.6	1.1 nM	–	–
Cc1cc(O)cc(C)c1C[C@H](N)C(=O)NC(C)(C)CNC(=O)[C@H](Cc1ccccc1)NC(=O)NS(=O)(=O)c1ccccc1 [Example 59, S-amino-N-[1,1-dimethyl-2-[[1-oxo-3-phenyl-2S-[[[(phenylsulfonyl)amino]carbonyl]amino]propyl]amino]ethyl]-4-hydroxy-2,6-dimethylbenzeneoropanamide, monohydrochloride]	7.3 nM	0.4	3.2 nM	–	–
Cc1cc(O)cc(C)c1C[C@H](N)C(=O)NC(C)(C)CNC(=O)[C@H](Cc1ccccc1)NC(=O)C(F)(F)F [Example 14, αS-Amino-N-[1,1-dimethyl-2-[[1-oxo-3-phenyl-2S-[[trifluoroacetyl-amino]propyl]aminoethyl]-4-hydroxy-2,6-dimethylbenzenepropanamide, hydrochloride]	0.64 nM	0.8	0.54 nM	–	–
